Results reported in US11166954B2, “Dihydropyrimidine compound and preparation method and use thereof” (SICHUAN KELUN-BIOTECH BIOPHARMACEUTICAL CO., LTD., priority 2016, dated 2021).
Where two headings read alike, the source gives them in different places.

Legend:
[1] = target: T1, hERG potassium ion channel (Homo sapiens, UniProt Q12809); assay: Predictor hERG Fluorescence Polarization Assay; assay type: binding; conditions: hERG fluorescence polarization
T1 construct: purchased
From the text: In cardiac muscle cells, hERG (human Ether-a-go-go Related Gene) coded potassium channel mediates delayed rectifier potassium currents (IKr). IKr inhibition is the most important mechanism of QT interval prolongation caused by a drug.
Employing the Predictor™ hERG Fluorescence Polarization Assay, the effect of the compounds on a hERG potassium ion channel was detected.

[2] = test system: hepatitis type B virus (HBV); assay: Inhibition of HBV DNA replication in HepG2.2.15 cells; assay type: cell-based
Description: The inhibitory effect of the compounds of the present invention on hepatitis type B virus (HBV) was tested. Cytotoxicity and effects on nucleic acid (DNA) replication level of the virus (HBV) of the compounds of the present invention were tested at a virus-cell level.
HepG2.2.15 cells in the logarithmic growth phase were plated in a 96-well plate at a cell concentration of 40 cells per μL. The cells were incubated in a 5% CO2 incubator at 37° C. for 3 days; and the culture medium was replaced with a new one ([…]) before adding compounds. The concentration of the stock solution of each Example compound is 200 μM.

HepG2.2.15 cells = assay: Cytotoxicity detection (CellTiter-Glo); assay type: cell-based; conditions: 4 days, highest concentration 150 μM
Description: (§1) The test compounds were diluted to 30 mM with DMSO, with 30 mM as the highest concentration, the compounds were subjected to three-fold serial dilution to various concentrations. 0.2 μL of the compounds at various concentrations were added to a 384-well plate, HepG2.2.15 cells having a concentration of 2000 cells per 50 μL were added to each well, and the highest concentration of the test compounds was 150 μM. 1 μL of DMSO was added to corresponding wells for control. The plate was incubated in a 5% CO2 incubator at 37° C. for 4 days; and 50 μL of CellTiter-Glo was added to each well after 4 days. The plate was read for detection, and a half cytotoxic concentration (CC50) was calculated.

[3] = In vivo pharmacokinetics (PK) in rats; conditions: male, SD, rat; for Kp: liver/plasma, 2 mg/kg
Description: (§2) The test compounds were administrated to male SD rats by intravenous (iv) and by gavage (po), respectively, the doses of the iv and po administration were respectively 1 mg/kg and 2 mg/kg, the solvent system for iv administration was 5% DMSO:5% solutol:90% physiological saline, and the solvent system for po administration was 0.5% MC. Blood was collected at multiple time points after iv administration and po administration for the PK study. Plasma samples and liver tissue samples were subjected to protein precipitation, followed by LC-MS/MS analysis. The mass spectrometer was API 5500, and the liquid chromatograph is a Waters ACQUITY I CLASS system; the chromatographic column was an Agela ASB C18 column (2.1 mm×50 mm, 1.9 μm); mobile phase A was water+0.1% formic acid, and phase B was acetonitrile; the flow rate was 0.4 mL/min, and the column temperature was 40° C. The ion source was an ESI source in a positive ion mode, and the scanning manner is multiple reaction monitoring (MRM).

[4] = Cytotoxicity detection (CellTiter-Glo); assay type: cell-based; conditions: human, HepG2.2.15 cells, highest concentration 150 μM
Description: as §1

[5] = In vivo pharmacokinetics (PK) in Beagle dogs; set-up: species or system male Beagle dogs; conditions: Beagle dog
Description: as §2, with “male Beagle dogs” for “male SD rats”, “respectively 0.5” for “respectively 1”, “and 2.5” for “and 2”, “samples” for “samples and liver tissue samples”, “chromatograph was” for “chromatograph is”

CYP3A4 = CYP3A4 induction test (HepG2 C3A/pCYP3A4-Luc, C8 cells, luciferase); assay type: cell-based; conditions: human, HepG2 C3A/pCYP3A4-Luc, C8 cells; CYP3A4 induction, 72 hours
Description: (§3) A test tube of HepG2 C3A/pCYP3A4-Luc, C8 cells was taken out of a liquid nitrogen tank, the cells were recovered in a sterile water bath at 37° C.; and the test tube was gently shaken until ice completely melted. The recovered cells were transferred to a 15 mL sterile centrifuge tube, and 5-10 mL pre-heated basal cell culture medium at 37° C. was added; the cells were naturally settled for 2 minutes and centrifuged (1000 rpm) for 8 minutes. The supernatant was discarded, and the cells were re-suspended with 10 mL pre-heated cell culture medium. The cell suspension was transferred to a 10 cm cell-culture dish and incubated in a 5% CO2 incubator at 37° C. The original cell culture medium was replaced with a selective cell culture medium after 24 hours. The cells were digested after growing in 80%-90% of the culture dish, and then transferred to a 15 mL sterile centrifuge tube. Centrifugation was performed at 1000 rpm for 8 minutes, and the cells were collected. The supernatant was discarded, and the cells were re-suspended with 3 mL pre-heated complete medium. […] The supernatant was discarded, the cells were re-suspended and counted, and the suspension was diluted to 4×10^5 cells per mL. […] The fluorescence signal was measured on a plate reader. A concentration curve of the tested compounds was plotted by using software Prism 5, and the EC50 values were calculated.

CYP450 isoform 3A4 = assay: as above; assay type: cell-based; conditions: at a concentration of 10 μM
Description: as §3

hepatitis B virus = assay: Mouse HBV model via tail vein hydrodynamic injection (HDI); assay type: in vivo, female BALB/c mice
Description: The in vivo inhibitory effect on hepatitis B virus of the compound of the present invention was evaluated by employing a mouse HBV model via tail vein hydrodynamic injection (HDI).
A suspension of compound 10-227 of the present invention was prepared with a 0.5% MC solution as the solvent. Female BALB/c mice were injected with pAAV2-HBV 1.3mer (type D) plasmid DNA via tail vein hydrodynamic injection, and then divided into the control group, test group 1 and test group 2 (5 mice in each group). Oral gavage administration was initiated one day later. The control group was given the 0.5% MC solution each time. The test groups 1 and 2 each time were given compound 10-227 (in the form of the suspension prepared above) at a dosage of 1 mg/kg and 3 mg/kg, respectively. The administration was continued for 7 days, twice a day, at an administration interval of 10 hours or 14 hours. Mouse plasma was collected at different time points (e.g., 1 day, 3 days, 5 days or 7 days after the HDI), and the HBV DNA levels in the plasma samples were detected by the RT-qPCR method.
In addition, throughout the entire in vivo test, the weight and body condition of the mice were measured and observed everyday according to an IACUC (Institutional Animal Care and Use Committee) protocol.

[6] = In vivo pharmacokinetics (PK) in cynomolgus macaques; set-up: species or system male cynomolgus macaques; conditions: cynomolgus macaque
Description: as §2, with “male cynomolgus macaques” for “male SD rats”, “respectively 0.5” for “respectively 1”, “and 2.5” for “and 2”, “samples” for “samples and liver tissue samples”, “5500,” for “5500, and”, “chromatograph was” for “chromatograph is”

[7] = HepG2.2.15, HBV DNA replication
[8] = male, 0.5 mg/kg, iv, 0.50 mg/kg, plasma
[9] = male, 2.5 mg/kg, po, 2.50 mg/kg, plasma
[10] = male, cynomolgus monkey, 0.5 mg/kg, iv, 0.50 mg/kg, plasma
[11] = male, cynomolgus monkey, 2.5 mg/kg, po, 2.50 mg/kg, plasma

T1 sequence (Q12809 whole entry): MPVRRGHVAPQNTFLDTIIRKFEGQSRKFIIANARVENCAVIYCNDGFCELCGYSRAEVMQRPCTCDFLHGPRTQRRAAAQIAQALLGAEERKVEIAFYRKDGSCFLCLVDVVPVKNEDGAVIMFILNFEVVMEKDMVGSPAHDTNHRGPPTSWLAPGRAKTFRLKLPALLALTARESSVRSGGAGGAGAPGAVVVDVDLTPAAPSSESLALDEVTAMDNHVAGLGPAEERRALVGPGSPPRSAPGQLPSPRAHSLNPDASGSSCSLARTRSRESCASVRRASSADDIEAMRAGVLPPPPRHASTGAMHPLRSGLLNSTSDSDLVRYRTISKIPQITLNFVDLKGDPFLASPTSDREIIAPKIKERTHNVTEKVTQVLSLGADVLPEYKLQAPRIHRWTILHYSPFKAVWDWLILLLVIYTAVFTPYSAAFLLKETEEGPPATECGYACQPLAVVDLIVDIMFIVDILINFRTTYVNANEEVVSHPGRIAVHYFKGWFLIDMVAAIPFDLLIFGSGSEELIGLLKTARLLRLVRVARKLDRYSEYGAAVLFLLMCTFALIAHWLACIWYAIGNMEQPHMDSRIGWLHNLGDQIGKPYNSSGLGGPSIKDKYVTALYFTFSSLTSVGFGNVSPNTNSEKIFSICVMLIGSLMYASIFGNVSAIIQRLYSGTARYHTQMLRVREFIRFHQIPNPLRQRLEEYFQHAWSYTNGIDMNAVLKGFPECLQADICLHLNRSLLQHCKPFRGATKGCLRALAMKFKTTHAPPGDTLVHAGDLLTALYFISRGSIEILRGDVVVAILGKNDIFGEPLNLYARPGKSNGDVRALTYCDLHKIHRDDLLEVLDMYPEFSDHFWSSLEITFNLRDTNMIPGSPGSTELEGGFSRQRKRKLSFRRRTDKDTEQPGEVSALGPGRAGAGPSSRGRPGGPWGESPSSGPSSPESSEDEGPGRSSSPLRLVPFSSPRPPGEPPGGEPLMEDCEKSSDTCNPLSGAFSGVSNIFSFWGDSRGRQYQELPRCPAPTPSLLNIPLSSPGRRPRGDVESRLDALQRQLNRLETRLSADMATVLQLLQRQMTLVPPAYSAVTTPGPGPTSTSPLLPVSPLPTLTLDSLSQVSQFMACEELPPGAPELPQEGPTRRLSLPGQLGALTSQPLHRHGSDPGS

Molecule `CCOC(=O)C1=C(CN2CCC(O)C(F)(F)C2)NC(c2nccs2)=N[C@H]1c1ccc(F)cc1Cl` (single isomer, unassigned) [Isomer A of Example 4] has an IC50 [1] greater than 10 µM, an EC50 ([2]; HBV DNA replication) of 0.0351 µM and a CC50 (HepG2.2.15 cells) of 43.9 µM.

In the case of `CCOC(=O)C1=C(CN2CCO[C@H](/C=C/C(=O)O)C2)NC(c2nccs2)=N[C@H]1c1ccc(F)cc1Cl` [10-226 of Example 25, (E)-3-((R)-4-(((R)-6-(2-chloro-4-fluorophenyl)-5-(ethoxycarbonyl)-2-(thiazol-2-yl)-3,6-dihydropyrimidin-4-yl)methyl)morpholin-2-yl)acrylic Acid], the bioavailability ([3]; plasma, po, by gavage, 2.00 mg/kg, read-out: bioavailability (F)) is reported as 47.6%, the AUC(0-inf) ([3]; iv, 1.00 mg/kg, plasma) is reported as 2400 ng·h/mL and the Cmax ([3]; iv, 1.00 mg/kg, plasma) is reported as 2890 ng/mL. For the same molecule, the AUC(0-inf) ([3]; po, 2.00 mg/kg, liver) was 3030 ng·h/mL, the Cmax ([3]; po, 2.00 mg/kg, liver) was 1690 ng/mL and the AUC(0-inf) ([3]; po, 2.00 mg/kg, plasma) was 2290 ng·h/mL. It also gave a Cmax ([3]; po, 2.00 mg/kg, plasma) of 2180 ng/mL, an IC50 [1] greater than 10 µM and an EC50 [2, 7] of 0.0092 µM. For the same molecule, the CC50 at 4 days [4] was greater than 150 µM.

For `COC(=O)C1=C(CN2CCO[C@H](/C=C/C(=O)O)C2)NC(c2nccs2)=N[C@H]1c1ccc(F)cc1Cl` [10-227 of Example 27, (E)-3-((R)-4-(((R)-6-(2-chloro-4-fluorophenyl)-5-(methoxycarbonyl)-2-(thiazol-2-yl)-3,6-dihydropyrimidin-4-yl)methyl)morpholin-2-yl)acrylic Acid], the “amount of exposure in plasma relative to control compound 3” value ([5]; by gavage, 2.50 mg/kg) was “about 14 times”, the “blood-drug concentration relative to control compound 3” value ([5]; by gavage, 2.50 mg/kg) was “about 6 times” and the AUC(0-inf) [5, 8] was 8750 ng·h/mL. It also gave an AUC(0-t) [5, 8] of 8690 ng·h/mL, a Cmax [5, 8] of 2310 ng/mL and an AUC(0-inf) [5, 9] of 33200 ng·h/mL. It also gave an AUC(0-t) [5, 9] of 32900 ng·h/mL, a Cmax [5, 9] of 7200 ng/mL and a bioavailability ([5]; male, plasma, po, 2.5 mg/kg, by gavage, 2.50 mg/kg, read-out: bioavailability (F)) of 75.9%. The EC50 at 72 h (CYP3A4) was 123 µM, the “inductive effect on CYP450 isoform 3A4 relative to rifampicin” value (CYP450 isoform 3A4) was “about 29%” and the “HBV DNA level in plasma” value (hepatitis B virus; Test group 1, 1 mg/kg oral gavage twice a day, 1 day after HDI) was 1.95 ± 0.09 log (HBV DNA copies/μl). The “HBV DNA level in plasma” value (hepatitis B virus; Test group 1, 1 mg/kg oral gavage twice a day, 3 days after HDI) was 2.28 ± 0.17 log (HBV DNA copies/μl), the “HBV DNA level in plasma” value (hepatitis B virus; Test group 1, 1 mg/kg oral gavage twice a day, 5 days after HDI) was 2.77 ± 0.11 log (HBV DNA copies/μl) and the “HBV DNA level in plasma” value (hepatitis B virus; Test group 1, 1 mg/kg oral gavage twice a day, 7 days after HDI) was 2.77 ± 0.14 log (HBV DNA copies/μl). The “HBV DNA level in plasma” value (hepatitis B virus; Test group 2, 3 mg/kg oral gavage twice a day, 1 day after HDI) was 1.99 ± 0.09 log (HBV DNA copies/μl), the “HBV DNA level in plasma” value (hepatitis B virus; Test group 2, 3 mg/kg oral gavage twice a day, 3 days after HDI) was 1.95 ± 0.15 log (HBV DNA copies/μl) and the “HBV DNA level in plasma” value (hepatitis B virus; Test group 2, 3 mg/kg oral gavage twice a day, 5 days after HDI) was 1.57 ± 0.08 log (HBV DNA copies/μl). The “HBV DNA level in plasma” value (hepatitis B virus; Test group 2, 3 mg/kg oral gavage twice a day, 7 days after HDI) was 1.42 ± 0.31 log (HBV DNA copies/μl), the “variation in body weight” value (hepatitis B virus; mice, during 7 days of administration, 1 and 3 mg/kg) was less than 10% and the “amount of exposure in plasma relative to control compound 3” value ([6]; by gavage, 2.50 mg/kg) was “about 21 times”. For the same molecule, the “blood-drug concentration relative to control compound 3” value ([6]; by gavage, 2.50 mg/kg) was “about 33 times”, the AUC(0-inf) [6, 10] was 2460 ng·h/mL and the AUC(0-t) [6, 10] was 2440 ng·h/mL. The Cmax [6, 10] was 1670 ng/mL, the AUC(0-inf) [6, 11] was 4570 ng·h/mL and the AUC(0-t) [6, 11] was 4420 ng·h/mL. The Cmax [6, 11] was 1070 ng/mL, the bioavailability ([6]; male, cynomolgus monkey, plasma, po, 2.5 mg/kg, by gavage, 2.50 mg/kg, read-out: bioavailability (F)) was 37.2% and the IC50 [1] was greater than 10 µM. The EC50 [2, 7] was 0.01 µM and the CC50 at 4 days [4] was greater than 150 µM.

Work on `CCOC(=O)C1=C(CN2C[C@@H](/C=C/C(=O)O)CC(F)(F)C2)NC(c2nccs2)=N[C@H]1c1ccc(F)cc1Cl` [10-230 of Example 26, (E)-3-((R)-1-(((R)-6-(2-chloro-4-fluorophenyl)-5-(ethoxycarbonyl)-2-(thiazol-2-yl)-3,6-dihydropyrimidin-4-yl)methyl)-5,5-difluoropiperidin-3-yl)acrylic Acid] yielded a Kp ([3]; po, po, 2.00 mg/kg, AUCINF liver/plasma, read-out: amount of exposure in liver relative to that in plasma) of roughly 10, a Kp ([3]; po, po, 2.00 mg/kg, Cmax liver/plasma, read-out: blood-drug concentration in liver relative to that in plasma) of roughly 10 and an AUC(0-inf) ([3]; po, 2.00 mg/kg, liver) of 2340 ng·h/mL. The Cmax ([3]; po, 2.00 mg/kg, liver) was 1520 ng/mL, the AUC(0-inf) ([3]; po, 2.00 mg/kg, plasma) was 236 ng·h/mL and the Cmax ([3]; po, 2.00 mg/kg, plasma) was 179 ng/mL. For the same molecule, the IC50 [1] was greater than 10 µM, the EC50 [2, 7] was 0.0112 µM and the CC50 at 4 days [4] was 137 µM.
